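Protocol summary: plate cells (96-well), add compound at 5 concentrations, incubate 48 h, interpolate endpoints linearly. Abbreviation: GI50, concentration required for 50% inhibition of growth.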 Activity calls are given as the source filed them. Cut-off read from the data, not from the text of the source: active = GI50 up to about 1.1 µM and inactive = higher.
Tests used:
Assay in all cases: inhibition of tumour cell growth, NCI panel, 48 h
MDA-MB-231 = tested on: MDA-MB-231
OVCAR-4 = tested on: OVCAR-4
HCC 2998 = tested on: HCC 2998
A549 = tested on: A549
SN12C = tested on: SN12C
PC-3 = tested on: PC-3
SF-295 = tested on: SF-295
CAKI-1 = tested on: CAKI-1
MOLT-4 = tested on: MOLT-4
RPMI-8226 = tested on: RPMI-8226
OVCAR-8 = tested on: OVCAR-8
HOP-62 = tested on: HOP-62
Hs-578T = tested on: Hs-578T
MDA-MB-435 = tested on: MDA-MB-435
U-251 = tested on: U-251
NCI-H522 = tested on: NCI-H522
OVCAR-3 = tested on: OVCAR-3
SNB-75 = tested on: SNB-75
OVCAR-5 = tested on: OVCAR-5
SK-MEL-2 = tested on: SK-MEL-2

Compound | GI50 (MDA-MB-231) | GI50 (OVCAR-4) | GI50 (HCC 2998) | GI50 (A549) | GI50 (SN12C) | GI50 (PC-3) | GI50 (SF-295) | GI50 (CAKI-1) | GI50 (MOLT-4) | GI50 (RPMI-8226) | GI50 (OVCAR-8) | GI50 (HOP-62) | GI50 (Hs-578T) | GI50 (MDA-MB-435) | GI50 (U-251) | GI50 (NCI-H522) | GI50 (OVCAR-3) | GI50 (SNB-75) | GI50 (OVCAR-5) | GI50 (SK-MEL-2)
COC(=O)c1ccc(C)cc1C1CN=NC12Cc1cc(C)ccc1C2=O (stereo not given) | 14 µM (inactive) | 26.2 µM (inactive) | 23.8 µM (inactive) | 25.4 µM (inactive) | 23.9 µM (inactive) | 11.5 µM (inactive) | 7.28 µM (inactive) | 11.8 µM (inactive) | 10.3 µM (inactive) | 16.4 µM (inactive) | 27.2 µM (inactive) | 20.1 µM (inactive) | 8.67 µM (inactive) | 2.18 µM (inactive) | 11.7 µM (inactive) | 5.06 µM (inactive) | 9.14 µM (inactive) | 8.61 µM (inactive) | 30 µM (inactive) | 8.22 µM (inactive)
CO[C@@]12C[C@H](CNC(=O)c3ccc[nH]3)O[C@@H]1NC(=O)N2 | > 100 µM (inactive) | > 100 µM (inactive) | > 100 µM (inactive) | > 100 µM (inactive) | > 100 µM (inactive) | > 100 µM (inactive) | > 100 µM (inactive) | > 100 µM (inactive) | > 100 µM (inactive) | > 100 µM (inactive) | > 100 µM (inactive) | > 100 µM (inactive) | > 100 µM (inactive) | > 100 µM (inactive) | > 100 µM (inactive) | > 100 µM (inactive) | > 100 µM (inactive) | > 100 µM (inactive) | > 100 µM (inactive) | > 100 µM (inactive)
O=[N+]([O-])c1ccc(CN(CCCl)OCCCl)cc1 | > 100 µM (inactive) | 56.9 µM (inactive) | 84.1 µM (inactive) | 67.6 µM (inactive) | > 100 µM (inactive) | 26.8 µM (inactive) | > 100 µM (inactive) | 64.9 µM (inactive) | 20.9 µM (inactive) | 98.6 µM (inactive) | > 100 µM (inactive) | > 100 µM (inactive) | > 100 µM (inactive) | > 100 µM (inactive) | > 100 µM (inactive) | 31.3 µM (inactive) | > 100 µM (inactive) | > 100 µM (inactive) | > 100 µM (inactive) | > 100 µM (inactive)
COC(OC)C1OC(CO)C(n2ccc(N)nc2=O)C1O (stereo not given) | > 100 µM (inactive) | > 100 µM (inactive) | > 100 µM (inactive) | > 100 µM (inactive) | > 100 µM (inactive) | > 100 µM (inactive) | > 100 µM (inactive) | > 100 µM (inactive) | > 100 µM (inactive) | > 100 µM (inactive) | > 100 µM (inactive) | > 100 µM (inactive) | > 100 µM (inactive) | > 100 µM (inactive) | > 100 µM (inactive) | > 100 µM (inactive) | > 100 µM (inactive) | > 100 µM (inactive) | > 100 µM (inactive) | > 100 µM (inactive)
CCOC(=O)c1ccc(OCc2nc3cc(C(F)(F)F)ccc3nc2-c2ccccc2)cc1 | > 100 µM (inactive) | > 100 µM (inactive) | > 100 µM (inactive) | > 100 µM (inactive) | > 100 µM (inactive) | > 100 µM (inactive) | > 100 µM (inactive) | > 100 µM (inactive) | > 100 µM (inactive) | > 100 µM (inactive) | > 100 µM (inactive) | > 100 µM (inactive) | > 100 µM (inactive) | > 100 µM (inactive) | > 100 µM (inactive) | > 100 µM (inactive) | > 100 µM (inactive) | > 100 µM (inactive) | > 100 µM (inactive) | > 100 µM (inactive)
COc1ccc(C(SC2C(O)C(CO)OC2n2ccc(N)nc2=O)(c2ccccc2)c2ccc(OC)cc2)cc1 (stereo not given) | 16 µM (inactive) | 24.8 µM (inactive) | 17.1 µM (inactive) | 18.5 µM (inactive) | 13.3 µM (inactive) | 16.4 µM (inactive) | 6.79 µM (inactive) | 31.3 µM (inactive) | 19.1 µM (inactive) | 17.5 µM (inactive) | 28.1 µM (inactive) | 17.8 µM (inactive) | 18.4 µM (inactive) | 10.9 µM (inactive) | 15.6 µM (inactive) | 13.4 µM (inactive) | 18.7 µM (inactive) | 16.5 µM (inactive) | 20.1 µM (inactive) | 16.8 µM (inactive)
C/C(=N/NC(=S)N(Cc1ccccn1)Cc1ccccn1)c1cnccn1 | 0.646 µM (active) | 0.288 µM (active) | 2.69 µM (inactive) | 0.329 µM (active) | 0.208 µM (active) | 2.49 µM (inactive) | 0.374 µM (active) | 0.429 µM (active) | 0.0948 µM (active) | 0.373 µM (active) | 0.0303 µM (active) | 0.594 µM (active) | 6.46 µM (inactive) | 0.897 µM (active) | 0.129 µM (active) | 0.0381 µM (active) | 0.646 µM (active) | 3.43 µM (inactive) | 1.26 µM (inactive) | 3.41 µM (inactive)
Brc1ccc2[nH]cc([C@H]3CN[C@@H](c4c[nH]c5ccc(Br)cc45)CN3)c2c1 | 1.62 µM (inactive) | 1.94 µM (inactive) | 1.69 µM (inactive) | 2.52 µM (inactive) | 2.91 µM (inactive) | 1.88 µM (inactive) | 4.97 µM (inactive) | 1.82 µM (inactive) | 2.11 µM (inactive) | 2.16 µM (inactive) | 1.79 µM (inactive) | 3.37 µM (inactive) | 4.31 µM (inactive) | 1.77 µM (inactive) | 2.12 µM (inactive) | 1.79 µM (inactive) | 1.79 µM (inactive) | 1.83 µM (inactive) | 2.75 µM (inactive) | 2.09 µM (inactive)
CC1(C)CC(=O)C2=C(C1)C(c1ccccc1Cl)C1C(=O)CC(C)(C)CC1(O)O2 (stereo not given) | > 100 µM (inactive) | > 100 µM (inactive) | > 100 µM (inactive) | > 100 µM (inactive) | > 100 µM (inactive) | > 100 µM (inactive) | > 31.6 µM (inactive) | 98.2 µM (inactive) | 74.5 µM (inactive) | > 84.1 µM (inactive) | > 86.7 µM (inactive) | > 100 µM (inactive) | > 72.3 µM (inactive) | 25.9 µM (inactive) | > 100 µM (inactive) | > 100 µM (inactive) | > 100 µM (inactive) | > 78.3 µM (inactive) | > 100 µM (inactive) | > 100 µM (inactive)
CC(C)[C@H](NC(=O)[C@@H](O)[C@H](N)Cc1ccccc1)C(=O)N[C@@H](Cc1ccccc1)C(=O)O | > 100 µM (inactive) | > 100 µM (inactive) | > 100 µM (inactive) | > 100 µM (inactive) | > 100 µM (inactive) | > 100 µM (inactive) | > 100 µM (inactive) | > 100 µM (inactive) | > 100 µM (inactive) | > 100 µM (inactive) | > 100 µM (inactive) | > 100 µM (inactive) | > 100 µM (inactive) | > 100 µM (inactive) | > 100 µM (inactive) | > 100 µM (inactive) | > 100 µM (inactive) | > 100 µM (inactive) | > 100 µM (inactive) | > 100 µM (inactive)
COc1cc(C(=O)N(C)N(C)C)cc(OC)c1OC | > 10 µM (inactive) | > 10 µM (inactive) | > 10 µM (inactive) | > 10 µM (inactive) | > 10 µM (inactive) | > 10 µM (inactive) | > 10 µM (inactive) | > 10 µM (inactive) | > 10 µM (inactive) | > 10 µM (inactive) | > 10 µM (inactive) | > 10 µM (inactive) | > 10 µM (inactive) | > 10 µM (inactive) | > 10 µM (inactive) | > 10 µM (inactive) | > 10 µM (inactive) | > 10 µM (inactive) | > 10 µM (inactive) | > 10 µM (inactive)
Cc1cc(Br)cc(C)c1NC(=O)C(=O)Nn1c(S)nc2ccccc2c1=O | > 100 µM (inactive) | 33.8 µM (inactive) | > 100 µM (inactive) | > 100 µM (inactive) | > 100 µM (inactive) | > 100 µM (inactive) | > 100 µM (inactive) | > 100 µM (inactive) | > 100 µM (inactive) | > 100 µM (inactive) | > 100 µM (inactive) | > 100 µM (inactive) | > 100 µM (inactive) | > 100 µM (inactive) | > 100 µM (inactive) | > 100 µM (inactive) | > 100 µM (inactive) | > 100 µM (inactive) | > 100 µM (inactive) | > 100 µM (inactive)
CC1(C)OCC(/C=C\C(O)CC2(C)OCCO2)CO1 (stereo not given) | > 100 µM (inactive) | > 100 µM (inactive) | > 100 µM (inactive) | > 100 µM (inactive) | > 100 µM (inactive) | > 100 µM (inactive) | > 100 µM (inactive) | > 100 µM (inactive) | > 100 µM (inactive) | > 100 µM (inactive) | > 100 µM (inactive) | > 100 µM (inactive) | > 100 µM (inactive) | > 100 µM (inactive) | > 100 µM (inactive) | > 100 µM (inactive) | > 100 µM (inactive) | > 100 µM (inactive) | > 100 µM (inactive) | > 100 µM (inactive)
O=C1NC2(CCN(CCc3ccccc3)CC2)Oc2ccccc21 | 88.3 µM (inactive) | > 100 µM (inactive) | 62.1 µM (inactive) | 64.6 µM (inactive) | 99.5 µM (inactive) | 33.9 µM (inactive) | 49.2 µM (inactive) | > 100 µM (inactive) | 32.5 µM (inactive) | 33.7 µM (inactive) | 64.7 µM (inactive) | > 100 µM (inactive) | 15.3 µM (inactive) | 53.5 µM (inactive) | 61.9 µM (inactive) | 95.1 µM (inactive) | 77.6 µM (inactive) | 36.9 µM (inactive) | 44.2 µM (inactive) | > 100 µM (inactive)

Source: ChEMBL document CHEMBL1201862, “PubChem BioAssay data set” (2004)
